# According to article PMC11530130, “Peripherally restricted PICK1 inhibitor mPD5 ameliorates pain behaviors in murine inflammatory and neuropathic pain models” (JCI Insight, 2024):
# Values joined by “and” are separate entries in the source; they are usually repeats but may differ in a detail not shown here. Equal values may be shown once. “Also recorded” adds a separate entry of the source.
# How the values were obtained:
# [1] = Size exclusion chromatography (SEC), self-assembly; assay type: physicochemical; details: Superdex200 Increase 10/300; independent of initial concentration
# Description: SUPPORTING INFORMATION: Method Section.
# Sex as a biological variable.
# All peptides were ordered from WuXI AppTec (Shanghai, China) or TAG-Copenhagen […]
# Protein expression and purification.
# Full length rat PICK1 (pET41) was, as described earlier (1), expressed in BL21-DE3-pLysS and grown at 37 °C, induced at OD600= 0.6 with 1 mM IPTG, and grown for 16 hours at 20 °C.
# Cultures were harvested and re-suspended in 50 mM Tris, 125 mM NaCl, 2 mM DTT (Sigma), 1% Triton X-100 (Sigma), 20 µg/mL DNAse 1 and half a tablet of cOmplete protease inhibitor cocktail (Roche) pr. 1 L culture. The resuspended pellets were frozen at -80 °C for later purification. The lysate was cleared by centrifugation (36,000 x g for 30 min at 4 °C), and the supernatant was incubated with Glutathione-Sepharose 4B beads (GE Healthcare) for two hours at 4 °C under gentle rotation and then centrifuged at 4000 x g for 5 min. The supernatant was removed, and the beads were washed twice in 35 mL 50 mM Tris, 125 mM NaCl, 2 mM DTT, and 0.01% Triton-X100. The beads were transferred to PD-10 Bio-Spin® Chromatography columns (Bio-Rad) and washed with an additional 3 column volumes. Each column was sealed and 0.075 U/µL, Novagen® was added for cleavage O/N at 4 °C under gentle rotation. PICK1 was eluted on ice and concentration was measured on a NanoDrop 3000. […]
# Size Exclusion Chromatography (SEC). […]
# [2] = Plasma exposure after single s.c. injection, LC-MS/MS; assay type: in vivo, mouse; parameters: maximal plasma concentration / plasma concentration, individual mice: unit not given here
# Description: Assessment of plasma levels and biodistribution of mPD5.
# The mPD5 plasma exposure was determined by (WuXI AppTec (Shanghai, China)) and done following s.c. injection of three male C57BL/6N (vendor: VTLH) mice (7-9 weeks old, fasted) with each concentration of mPD5 (2, 10 and 50 µmol/kg) in sterile PBS. Blood samples were taken 30 min, 1 hour, 2 hours, 5 hours, and 12 hours following injection. For the repeated administration experiment, the initial s.c. injection of 10 µmol/kg was followed by 4 s.c. administrations of 2 µmol/kg with one hour between injections. Following the last injection, blood samples (0.03 mL from saphenous vein or other suitable site) were collected in EDTA- […]
# K2 tubes at 5 min, 30 min, 1 hour, 5 hours, 12 hours, 24 hours, and 48 hours and centrifuged (app 4 ℃, 3200 g, 10 min) for collection of plasma. Plasma was transferred to 96 well plates and quick-frozen over dry ice and kept at -60 ℃ until LC-MS/MS analysis. For LC-MS/MS analysis plasma with 0.25% Triton X100 in 50% MeOH/water (6 µL) was quenched with 160 µL of IS1 (internal standard in MeOH (Labetalol & tolbutamide & Verapamil & dexamethasone & glyburide & Celecoxib 100 ng/mL for each)) and the mixture was vortexed for 10 min at 800 rpm and centrifuged for 15 min at 3220 × g at 4 ℃. An aliquot of 65 µL supernatant was transferred to a clean 96-well plate and centrifuged for 5 min at 3220 × g at 4 ℃, then the supernatant was directly injected for LC-MS/MS analysis. Plasma half-lives were determined from three points in the elimination phase. […]
# naive mice = assay: Barnes maze (spatial learning and memory, reversal learning); assay type: in vivo, mouse; details: for Barnes maze, count per hole (Fig S8D) / Barnes maze, count per hole (Fig S8E): individual animals;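 on Barnes maze, count per hole (Fig S8D): Nose pokes per hole during a probe trial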;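 on Barnes maze, count per hole (Fig S8E): Nose pokes per hole during a probe trial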
# Description: Spatial learning and memory.
# On each day, animals were moved from the housing facility to the experimental room and allowed to acclimatize for at least 60 min before initiation of the experiment. All drugs used (PBS or 10 μmol/kg mPD5) were injected s.c. in a 10 μl/g body weight volume 60 min before first placement on the Barnes’ maze on day 1-9 of the experiment. The experiment was divided into Barnes maze habituation, spatial acquisition (training) and probe trials. During habituation to the Barnes maze itself, animals were placed under a cylinder in the middle of the Barnes maze for 10 seconds and then gently guided to the escape box and left there for two min. During spatial acquisition (training), each mouse was placed under a cylinder in the middle of the Barnes maze for 10 sec followed by up to three min of free exploration of the Barnes maze.
# Once the animal entered the escape cage, it was left there for one min before being transferred back to its home cage for 15-20 min. This training was performed four times per day per mouse.
# During probe trials the reference memory of the animal was tested by placing each mouse under a cylinder in the middle of the Barnes maze for 10 sec followed by 90 sec of free exploration of the Barnes maze with no escape cage. On days 6-8, the escape hole was moved 90 degrees, and all mice went through the second bout of training. On day nine, a second probe trial was performed testing the reversal learning of the mice. […]
# Single exposure place preference. […]
smiles,measurement,setting,value
"CCCCCCCCCCCCCC(=O)N(CCOCCOCCC(=O)N[C@@H](Cc1c[nH]cn1)C(=O)N[C@@H](Cc1c[nH]c2ccccc12)C(=O)N[C@@H](CC(C)C)C(=O)N[C@@H](CCCCN)C(=O)N[C@H](C(=O)O)C(C)C)CCOCCOCCC(=O)N[C@@H](Cc1c[nH]cn1)C(=O)N[C@@H](Cc1c[nH]c2ccccc12)C(=O)N[C@@H](CC(C)C)C(=O)N[C@@H](CCCCN)C(=O)N[C@H](C(=O)O)C(C)C [mPD5, myristoyl-NPEG4-(HWLKV)2]",SEC elution volume,[1],approximately 14.2 mL
same,half-life,"[2]; male, C57BL/6N, mouse, plasma, sc, 2 umol/kg, mice, s.c. 2 μmol/kg",30 ± 4.2 min
same,half-life,"[2]; male, C57BL/6N, mouse, plasma, sc, 10 umol/kg, mice, s.c. 10 μmol/kg",35.4 ± 4.2 min
same,half-life,"[2]; male, C57BL/6N, mouse, plasma, sc, 10 umol/kg; mice, s.c. 10 μmol/kg",36 min
same,half-life,"[2]; male, C57BL/6N, mouse, plasma, sc, 50 umol/kg, mice, s.c. 50 μmol/kg",50.4 ± 1.8 min
same,Tmax,"[2]; male, C57BL/6N, mouse, plasma, sc, 50 umol/kg; mice, s.c., all doses (2, 10, 50 μmol/kg); read-out: time of maximal plasma concentration",60 min
same,maximal plasma concentration,"[2]; mice, s.c. 2 μmol/kg, 1 hour",1.4 ± 0.1
same,maximal plasma concentration,"[2]; mice, s.c. 10 μmol/kg, 1 hour",6.2 ± 5
same,maximal plasma concentration,"[2]; mice, s.c. 50 μmol/kg, 1 hour",20.2 ± 0.6
same,maximal dose and area under the curve vs dose,"[2]; mice, s.c. 2, 10, 50 μmol/kg",scaled linearly with dose
same,distribution volume,"[2]; mice, s.c., all concentrations",approximately 30 mL
same,elimination kinetics,"[2]; mice, s.c., all doses",first-order kinetics; also recorded: eliminated with linear kinetics
same,"plasma concentration, individual mice",[2]; s.c. 2µmol/kg; 0.5 h,1295 and 1523 and 1490
same,"plasma concentration, individual mice",[2]; s.c. 2µmol/kg; 1 h,1326 and 1469 and 1351
same,"plasma concentration, individual mice",[2]; s.c. 2µmol/kg; 2 h,439 and 392 and 443
same,"plasma concentration, individual mice",[2]; s.c. 2µmol/kg; 5 h,8.69 and 2.25 and 8.61
same,"plasma concentration, individual mice",[2]; s.c. 10µmol/kg; 0.5 h,4235 and 5102 and 3488
same,"plasma concentration, individual mice",[2]; s.c. 10µmol/kg; 1 h,6616 and 5618 and 6285
same,"plasma concentration, individual mice",[2]; s.c. 10µmol/kg; 2 h,2485 and 2007 and 1777
same,"plasma concentration, individual mice",[2]; s.c. 10µmol/kg; 5 h,101 and 46.6 and 33.1
same,"plasma concentration, individual mice",[2]; s.c. 50µmol/kg; 0.5 h,12546 and 11390 and 17752
same,"plasma concentration, individual mice",[2]; s.c. 50µmol/kg; 1 h,20045 and 20980 and 19750
same,"plasma concentration, individual mice",[2]; s.c. 50µmol/kg; 2 h,14800 and 13957 and 8907
same,"plasma concentration, individual mice",[2]; s.c. 50µmol/kg; 5 h,1391 and 1198 and 438
same,"plasma concentration, individual mice",[2]; s.c. 50µmol/kg; 12 h,3.21 and 3.81 and 2.66
same,"Barnes maze, count per hole (Fig S8D)",naive mice; hole position 1,2 (3×) and 1 (2×) and 0 (2×) and 3 (2×)
same,"Barnes maze, count per hole (Fig S8E)",naive mice; hole position 1,3 (6×) and 1 (2×) and 2
same,"Barnes maze, count per hole (Fig S8D)",naive mice; hole position 2,0 (5×) and 1 (3×) and 2
same,"Barnes maze, count per hole (Fig S8E)",naive mice; hole position 2,0 (6×) and 1 (3×)
same,"Barnes maze, count per hole (Fig S8D)",naive mice; hole position 3,1 (4×) and 2 (3×) and 0 (2×)
same,"Barnes maze, count per hole (Fig S8E)",naive mice; hole position 3,1 (7×) and 0 and 2
same,"Barnes maze, count per hole (Fig S8D)",naive mice; hole position 4,0 (4×) and 2 (2×) and 1 (3×)
same,"Barnes maze, count per hole (Fig S8E)",naive mice; hole position 4,1 (6×) and 2 (2×) and 0
same,"Barnes maze, count per hole (Fig S8D)",naive mice; hole position -1,2 (3×) and 3 and 1 (2×) and 6 and 0 and 4
same,"Barnes maze, count per hole (Fig S8E)",naive mice; hole position -1,3 (4×) and 0 (2×) and 1 and 2 and 4
same,"Barnes maze, count per hole (Fig S8D)",naive mice; hole position -2,0 (8×) and 1
same,"Barnes maze, count per hole (Fig S8E)",naive mice; hole position -2,0 (4×) and 1 (4×) and 2
same,"Barnes maze, count per hole (Fig S8D)",naive mice; hole position -3,0 (6×) and 1 (2×) and 2
same,"Barnes maze, count per hole (Fig S8E)",naive mice; hole position -3,1 (5×) and 0 (2×) and 2 (2×)
same,"Barnes maze, count per hole (Fig S8D)",naive mice; hole position -4,0 (6×) and 2 (2×) and 1
same,"Barnes maze, count per hole (Fig S8E)",naive mice; hole position -4,1 (6×) and 0 (2×) and 2
same,"Barnes maze, count per hole (Fig S8D)",naive mice; hole position -5,0 (6×) and 2 (2×) and 1
same,"Barnes maze, count per hole (Fig S8E)",naive mice; hole position -5,1 (4×) and 0 (2×) and 2 (2×) and 3
same,"Barnes maze, count per hole (Fig S8D)",naive mice; hole position -6,0 (6×) and 3 and 1 (2×)
same,"Barnes maze, count per hole (Fig S8E)",naive mice; hole position -6,1 (3×) and 0 (2×) and 2 (3×) and 3
same,"Barnes maze, count per hole (Fig S8D)",naive mice; hole position -7,0
same,"Barnes maze, count per hole (Fig S8E)",naive mice; hole position -7,0
same,"Barnes maze, count per hole (Fig S8D)",naive mice; hole position Goal,2 (2×) and 3 (2×) and 6 (2×) and 1 (2×) and 4
same,"Barnes maze, count per hole (Fig S8E)",naive mice; hole position Goal,4 (3×) and 3 (3×) and 2 (2×) and 1
same,"latency to reach target and total distance moved, probe test day 5","naive mice; s.c. 10 μmol/kg 60 minutes before placement, after 4 days of training",no difference
same,latency to reach the target and total distance moved following reversal learning,"naive mice; s.c. 10 μmol/kg 60 minutes before placement, probe test day 9",no difference was observed
same,distribution of nose pokes between the holes,"naive mice; s.c. 10 μmol/kg, both probe tests",did not differ between groups
